Structures are written as SMILES.

Holding throughout (assay): Bliss interaction score (quartile over a dose matrix) (fitness difference); higher = more antagonism (negative = synergy)
One assay deals with B. subtilis 168. The essentials:
(§1)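 Quartiles summarise the Bliss score over technical, biological and donor/recipient replicates, where the score is observed minus expected fitness under a product model. Expected fitness uses single-drug values inferred from combination data. Fitness is OD595 at entry into stationary phase over the plate's robust no-drug mean, capped at 1.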

The subject of a further assay is S. aureus DSM 20231. The essentials: as §1
For another assay, the system named is S. aureus Newman. The essentials:
as §1

In the next assay the test system is S. pneumoniae D39V. The method in brief: as §1
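Note: first quartile when negative (synergy) and third quartile when positive (antagonism).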

For the compound `O=C(N[C@H](CO)[C@H](O)c1ccc([N+](=O)[O-])cc1)C(Cl)Cl` [Chloramphenicol] + C[C@H]1c2cccc(O)c2C(=O)C2=C(O)[C@]3(O)C(=O)C(C(N)=O)=C(O)[C@@H](N(C)C)[C@@H]3[C@@H](O)[C@@H]21 [Doxycycline], the Bliss interaction score in the assay on B. subtilis 168 is -0.0915; in the assay with S. aureus DSM 20231 it was 0.0395; in the assay with S. aureus Newman, 0.0197; in the assay on S. pneumoniae D39V, -0.06.

As to `O=C(N[C@H](CO)[C@H](O)c1ccc([N+](=O)[O-])cc1)C(Cl)Cl` [Chloramphenicol] + Clc1ccc(COC(Cn2ccnc2)c2ccc(Cl)cc2Cl)c(Cl)c1 [Miconazole], the Bliss interaction score in the assay with B. subtilis 168 was 0.0615; with S. aureus DSM 20231 it was 0.0813; in the assay on S. aureus Newman, 0.0868; in the assay with S. pneumoniae D39V it was 0.0799.

With `O=C(N[C@H](CO)[C@H](O)c1ccc([N+](=O)[O-])cc1)C(Cl)Cl` [Chloramphenicol] + N[C@@H]1CONC1=O [CycloserineD], the Bliss interaction score in the assay on B. subtilis 168 was 0.0478; in the assay with S. aureus DSM 20231, -0.168; in the assay with S. aureus Newman, -0.144; with S. pneumoniae D39V, 0.141.

Regarding `O=C(N[C@H](CO)[C@H](O)c1ccc([N+](=O)[O-])cc1)C(Cl)Cl` [Chloramphenicol] + O=C(O)[C@H]1/C(=C/CO)O[C@@H]2CC(=O)N21 [Clavulanic], the Bliss interaction score in the assay on B. subtilis 168 is 0.0981; in the assay with S. aureus DSM 20231 it was -0.265; in the assay on S. aureus Newman, 0.202; in the assay with S. pneumoniae D39V, -0.0693.

`O=C(N[C@H](CO)[C@H](O)c1ccc([N+](=O)[O-])cc1)C(Cl)Cl` [Chloramphenicol] + Oc1cc(Cl)ccc1Oc1ccc(Cl)cc1Cl [Triclosan]: the Bliss interaction score with B. subtilis 168 is -0.0443; in the assay with S. aureus DSM 20231 it was -0.0764; in the assay on S. aureus Newman it was 0.0302; in the assay with S. pneumoniae D39V, 0.0444.

`CC[C@H]1OC(=O)[C@H](C)[C@@H](O[C@H]2C[C@@](C)(OC)[C@@H](O)[C@H](C)O2)[C@H](C)[C@@H](O[C@@H]2O[C@H](C)C[C@H](N(C)C)[C@H]2O)[C@](C)(OC)C[C@@H](C)C(=O)[C@H](C)[C@@H](O)[C@]1(C)O` [Clarithromycin] + CC1(C)S[C@@H]2[C@H](NC(=O)Cc3ccccc3)C(=O)N2[C@H]1C(=O)O [PenicillinG]: the Bliss interaction score is 0.0431 in the assay on B. subtilis 168, -0.0458 with S. aureus DSM 20231, -0.0938 with S. aureus Newman and -0.0413 in the assay on S. pneumoniae D39V.

Consider `CC[C@H]1OC(=O)[C@H](C)[C@@H](O[C@H]2C[C@@](C)(OC)[C@@H](O)[C@H](C)O2)[C@H](C)[C@@H](O[C@@H]2O[C@H](C)C[C@H](N(C)C)[C@H]2O)[C@](C)(OC)C[C@@H](C)C(=O)[C@H](C)[C@@H](O)[C@]1(C)O` [Clarithromycin] + CC(=O)O[C@H]1C[C@@]2(C)[C@@H](C[C@@H](O)[C@H]3[C@@]4(C)CC[C@@H](O)[C@@H](C)[C@@H]4CC[C@@]32C)/C1=C(\CCC=C(C)C)C(=O)O [Fusidic acid], for which the Bliss interaction score with B. subtilis 168 was -0.059; with S. aureus DSM 20231, 0.0257; in the assay on S. aureus Newman, 0.0229; in the assay on S. pneumoniae D39V, -0.0728.

Turning to `CC[C@H]1OC(=O)[C@H](C)[C@@H](O[C@H]2C[C@@](C)(OC)[C@@H](O)[C@H](C)O2)[C@H](C)[C@@H](O[C@@H]2O[C@H](C)C[C@H](N(C)C)[C@H]2O)[C@](C)(OC)C[C@@H](C)C(=O)[C@H](C)[C@@H](O)[C@]1(C)O` [Clarithromycin] + CCCCCCCCCC(=O)N[C@@H]1[C@H]([C@@H]([C@H](O[C@H]1OC2=C3C=C4C=C2OC5=C(C=C(C=C5)[C@H]([C@H]6C(=O)N[C@@H](C7=C(C(=CC(=C7)O)OC8[C@H]([C@H]([C@@H]([C@H](O8)CO)O)O)O)C9=C(C=CC(=C9)[C@H](C(=O)N6)NC(=O)[C@@H]4NC(=O)[C@@H]1C2=CC(=CC(=C2)OC2=C(C=CC(=C2)[C@H](C(=O)N[C@H](CC2=CC(=C(O3)C=C2)Cl)C(=O)N1)N)O)O)O)C(=O)O)O[C@H]1[C@@H]([C@H]([C@@H]([C@H](O1)CO)O)O)NC(=O)C)Cl)CO)O)O [Teicoplanin], the Bliss interaction score in the assay on B. subtilis 168 (main component drawn) is 0.0401; in the assay on S. aureus DSM 20231 (main component drawn), 0.099; with S. aureus Newman (main component drawn), 0.173; in the assay with S. pneumoniae D39V (main component drawn) it was -0.0509.

Take `CC[C@H]1OC(=O)[C@H](C)[C@@H](O[C@H]2C[C@@](C)(OC)[C@@H](O)[C@H](C)O2)[C@H](C)[C@@H](O[C@@H]2O[C@H](C)C[C@H](N(C)C)[C@H]2O)[C@](C)(OC)C[C@@H](C)C(=O)[C@H](C)[C@@H](O)[C@]1(C)O` [Clarithromycin] + CCC[C@@H]1C[C@@H](C(=O)N[C@@H]([C@H]2O[C@H](SC)[C@H](O)[C@@H](O)[C@H]2O)[C@H](C)Cl)N(C)C1 [Clindamycin]: the Bliss interaction score with B. subtilis 168 was 0.0458; with S. aureus DSM 20231, -0.0458; with S. aureus Newman it was -0.066; with S. pneumoniae D39V, 0.0678.

Take `CC[C@H]1OC(=O)[C@H](C)[C@@H](O[C@H]2C[C@@](C)(OC)[C@@H](O)[C@H](C)O2)[C@H](C)[C@@H](O[C@@H]2O[C@H](C)C[C@H](N(C)C)[C@H]2O)[C@](C)(OC)C[C@@H](C)C(=O)[C@H](C)[C@@H](O)[C@]1(C)O` [Clarithromycin] + CC[C@H]1OC(=O)[C@H](C)C(=O)[C@H](C)[C@@H](O[C@@H]2O[C@H](C)C[C@H](N(C)C)[C@H]2O)[C@](C)(OC)C[C@@H](C)C(=O)[C@H](C)[C@H]2N(CCCCn3cnc(-c4cccnc4)c3)C(=O)O[C@]12C [Telithromycin]: the Bliss interaction score in the assay on B. subtilis 168 was 0.0309; with S. aureus DSM 20231 it was -0.0599; with S. aureus Newman, -0.0507; with S. pneumoniae D39V, 0.056.

Regarding `CC[C@H]1OC(=O)[C@H](C)[C@@H](O[C@H]2C[C@@](C)(OC)[C@@H](O)[C@H](C)O2)[C@H](C)[C@@H](O[C@@H]2O[C@H](C)C[C@H](N(C)C)[C@H]2O)[C@](C)(OC)C[C@@H](C)C(=O)[C@H](C)[C@@H](O)[C@]1(C)O` [Clarithromycin] + CC[C@H]1OC(=O)[C@H](C)[C@@H](O[C@H]2C[C@@](C)(OC)[C@@H](O)[C@H](C)O2)[C@H](C)[C@@H](O[C@@H]2O[C@H](C)C[C@H](N(C)C)[C@H]2O)[C@](C)(O)C[C@@H](C)C(=O)[C@H](C)[C@@H](O)[C@]1(C)O [Erythromycin], the Bliss interaction score with B. subtilis 168 is -0.0372; in the assay on S. aureus DSM 20231, 0.0159; in the assay on S. aureus Newman, -0.0296; in the assay on S. pneumoniae D39V it was 0.0551.

For the compound `CC[C@H]1OC(=O)[C@H](C)[C@@H](O[C@H]2C[C@@](C)(OC)[C@@H](O)[C@H](C)O2)[C@H](C)[C@@H](O[C@@H]2O[C@H](C)C[C@H](N(C)C)[C@H]2O)[C@](C)(OC)C[C@@H](C)C(=O)[C@H](C)[C@@H](O)[C@]1(C)O` [Clarithromycin] + CN(C)[C@@H]1C(O)=C(C(N)=O)C(=O)[C@@]2(O)C(O)=C3C(=O)c4c(O)ccc(Cl)c4[C@@](C)(O)[C@H]3C[C@@H]12 [Clortetracycline], the Bliss interaction score in the assay with B. subtilis 168 was -0.392; with S. aureus DSM 20231 it was -0.28; with S. aureus Newman, -0.094; in the assay on S. pneumoniae D39V, 0.0391.

Source of the values: the supplement of paper PMC10627819.
